Tests used:
CHL-1 = assay: Anchorage independent soft agar tumor growth assay; type: cell-based; conditions: CHL-1 skin melanoma, PTEN Wild-type, Protein
Method: (§1) Cellular Assays—Cell Growth Inhibition Assay in PTEN Wild-Type or PTEN Deficient Tumor Cell Lines Twenty-two Phosphatase and Tensin Homolog (PTEN) wild-type or PTEN deficient tumor cell lines were cultured generally according to instructions supplied by cell culture supplier American Type Culture Collection, Manassas, Va., with 10% fetal bovine serum at 5% CO2 and 37° C. Cells were seeded into either a T-75 or a T-175 flask 3-4 days prior to 96-well assay plating such that the flasks were approximately 70-80% confluent of the time of harvest. Cells were harvested using 0.25% trypsin-EDTA (Invitrogen #25200056). Trypan Blue exclusion staining was used to determine cell number. Viable cells were plated in clear, flat bottom 96-well plates (BD #353075) under anchorage independent conditions at 2,000-10,000 cells per well depending on the cell line. To generate anchorage independent growth conditions, a 5% agar stock solution in water was made and autoclaved to melt and sterilize. From the 5% agar solution, a 0.6% agar/media+10% fetal bovine serum (FBS) solution was made to generate a bottom agar layer in the plates to prevent cell attachment. Seventy five microliters per well of the 0.6% agar-media solution was added to the plates. After solidification, a cell solution of 266,870 to 1, 334,022 cells (depending on the cell line) in 10 ml of 0.3% agar/media+10% FBS was made and 75 μl of the cell/media/agar suspension was added to the plates. After the cell layer solidified, 50 μl of media+10% FBS was added to the top of the cells. A 0.3% Brij 35 (Sigma B4184) solution in media+10% FBS was added to column 12 as a background subtraction control. The cells were incubated overnight at 5% CO2 and 37° C. The next day one plate of cells was processed at the time of compound addition to quantify the starting number of cells (T=0 or T0). […] Three hundred microliters of media was added to the compound dilutions. Ten microliters per well of the serial dilutions was added to the cells and the plates incubated for 6 days at 5% CO2 and 37° C. […] Following the 6-day incubation, 20 μl of Alamar Blue (Invitrogen # DAL1100) was added to the cells, incubated at 5% CO2 and 37° C. for 6 hours and the plates read on a Spectramax (Gemini EM) at 530 nm (excitation) and 590 nm (emission) with the auto cut-off disabled. For analysis of cell growth inhibition dose response curves, the data was plotted as the percent of the DMSO-treated control samples (DMSO samples set to 100%). […] Values from wells containing 0.3% Brij 35 (under anchorage independent conditions) were subtracted from all samples for background correction.

HCC1954 = assay: Anchorage independent soft agar tumor growth assay; type: cell-based; conditions: HCC1954 breast carcinoma, PTEN Wild-type, Protein
Method: as §1

SW1783 = assay: Anchorage independent soft agar tumor growth assay; type: cell-based; conditions: SW1783 CNS glioblastoma, PTEN p.R233*, No protein
Method: as §1

BT474 = assay: Anchorage independent soft agar tumor growth assay; type: cell-based; conditions: BT474 breast carcinoma, PTEN Wild-type, Protein
Method: as §1

HCC1395 = assay: Anchorage independent soft agar tumor growth assay; type: cell-based; conditions: HCC1395 breast carcinoma, PTEN p.N212fs*3, No protein
Method: as §1

Colo205 = assay: Anchorage independent soft agar tumor growth assay; type: cell-based; conditions: Colo205 colon carcinoma, PTEN Wild-type
Method: as §1

C32 = assay: Anchorage independent soft agar tumor growth assay; type: cell-based; conditions: C32 skin melanoma, PTEN p.55fs*, No protein
Method: as §1

pAKT (pAKT/tAKT) = assay: Pharmacodynamic effects in PC-3 xenograft tumors (MSD phospho/total AKT); type: in vivo, mouse; conditions: 3 mg/kg or 10 mg/kg, 1, 2, 4, 6, 8, 10, and 24 hours
Method: Female nude mice (Charles River Laboratories, Wilmington, Del.; strain CD-1-Foxn1, 6 weeks of age) were injected subcutaneously with 2 million PC-3 (human prostate carcinoma) cells mixed 1:1 with Matrigel in the flank. Tumors were allowed to grow for approximately 5 weeks. […] The tumor was excised. Half of each tumor was immediately processed by Medicon (BD Catalog #340592) in 1 mL Meso-Scale Discovery (MSD) lysis buffer with protease inhibitors (Roche complete protease cocktail, cat #04 693 116 001) and phosphatase inhibitors (Sigma, cat # P2850 and P-5726) for 30-60 seconds and transferred to 1.5 mL Eppendorf tubes. Tubes remained on wet ice until they were centrifuged for 10 minutes at 4° C. at maximum speed in a tabletop refrigerated centrifuge. Tumor lysates were serially diluted in 96-well polypropylene plates on wet ice. Lysates (150 μL) were loaded in row 1; rows 2-12 were loaded with 75 μL of complete Meso Scale Discovery (MSD) lysis buffer (supplied in MSD kit; # […]-3). […] Plates were washed as described above, before the addition of 150 µL of MSD read buffer and read immediately on a 6000 MSD plate reader. […] P/T AKT was calculated as shown: (phospho AKT(Ser473) signal)/[(phospho AKT(Ser473) signal)+(total AKT signal)]. […] Percent inhibition was calculated for each group as follows: 100-[(sample P/T AKT value)/(vehicle P/T AKT value)]*100.

PC-3 = assay: Anchorage independent soft agar tumor growth assay; type: cell-based, human; conditions: PC-3 prostate carcinoma, PTEN Loss, No protein
Method: Cellular Assays—Cell Growth Inhibition Assay in PTEN Wild-Type or PTEN Deficient Tumor Cell Lines Twenty-two Phosphatase and Tensin Homolog (PTEN) wild-type or PTEN deficient tumor cell lines were cultured generally according to instructions supplied by cell culture supplier American Type Culture Collection, Manassas, Va., with 10% fetal bovine serum at 5% CO2 and 37° C. Cells were seeded into either a T-75 or a T-175 flask 3-4 days prior to 96-well assay plating such that the flasks were approximately 70-80% confluent of the time of harvest. Cells were harvested using 0.25% trypsin-EDTA (Invitrogen #25200056). Trypan Blue exclusion staining was used to determine cell number. Viable cells were plated in clear, flat bottom 96-well plates (BD #353075) under anchorage independent conditions at 2,000-10,000 cells per well depending on the cell line. To generate anchorage independent growth conditions, a 5% agar stock solution in water was made and autoclaved to melt and sterilize. […] The next day one plate of cells was processed at the time of compound addition to quantify the starting number of cells (T=0 or T0). […] Following the 6-day incubation, 20 μl of Alamar Blue (Invitrogen # DAL1100) was added to the cells, incubated at 5% CO2 and 37° C. for 6 hours and the plates read on a Spectramax (Gemini EM) at 530 nm (excitation) and 590 nm (emission) with the auto cut-off disabled. […]

[1] = percent of DMSO-treated control
[2] = Homo sapiens, 144 h, 6-day incubation, Alamar Blue, read-out: Compound EC50 (nM) ± StDev

EC50 (CHL-1; [2]): 14 ± 6 nM
EC50 (HCC1954; [2]): > 30700 nM
EC50 (SW1783; [2]): 10 ± 3 nM
EC50 (BT474; Homo sapiens, BT-474, 144 h, 6-day incubation, Alamar Blue, read-out: Compound EC50 (nM) ± StDev): 3360 ± 868 nM
EC50 (HCC1395; [2]): 114 ± 53 nM
EC50 (Colo205; Homo sapiens, COLO 205, 144 h, 6-day incubation, Alamar Blue, read-out: Compound EC50 (nM) ± StDev): > 30700 nM
EC50 (C32; [2]): 8 ± 2 nM
EC50 (PC-3; [2]): 27 ± 12 nM
SMILES: Cc1c(Cn2c(C)nc3c(C(=O)O)cc(N4CCOCC4)cc32)cccc1C(F)(F)F [Example 31, 2-methyl-1-{[2-methyl-3-(trifluoromethyl)phenol]methyl}-6-(4-morpholinyl)-1H-benzimidazole-4-carboxylic acid]
Compound Ymin ± StDev (CHL-1; [1]): 82 ± 2
Compound Ymin ± StDev (HCC1954; [1]): >80
Compound Ymin ± StDev (SW1783; [1]): 69 ± 4
Compound Ymin ± StDev (BT474; [1]): 75 ± 3
Compound Ymin ± StDev (HCC1395; [1]): 26 ± 9
Compound Ymin ± StDev (Colo205; [1]): >80
Compound Ymin ± StDev (C32; [1]): 20 ± 14
Inhibition of the pharmacodynamic marker pAKT (pAKT/tAKT) (pAKT (pAKT/tAKT)): dose dependent inhibition
Compound Ymin ± StDev (PC-3; [1]): 82 ± 13

Reference: patent US10660898B2, “Benzimidazole derivatives as PI3 kinase inhibitors” (GLAXOSMITHKLINE LLC, priority 2010, dated 2020)
